Laboratory results as given in patent publication US12478690B2, “Methods and systems for controlled release of drug cargo via ATP-responsive liposomes” (UNIVERSITY OF TENNESSEE RESEARCH FOUNDATION, priority 2021, dated 2025).

Test: Diffusion ordered spectroscopy (DOSY) of the lipid switch before and after ATP
Format: physicochemical
Settings: DMSO containing 8% D2O; substance alone
Protocol: Diffusion ordered spectroscopy (DOSY) was performed on 1a lipid switch molecules in de-DMSO containing 8% D2O before and after adding ATP. A decrease in diffusion coefficient was observed. In at least one experiment, the diffusion coefficient decreased from (1.0793±0.043)×10^−6 cm^2/s for 1a lipid switch molecule and (1.142±0.018)×10^−6 cm^2/s for ATP to (0.987±0.098)×10^−6 cm^2/s for 1a+ATP. The diffusion coefficient indicates an increase in the hydrodynamic radius per lipid molecule upon binding.

**Q.** With Nc1ncnc2c1ncn2[C@@H]1O[C@H](COP(=O)(O)OP(=O)(O)OP(=O)(O)O)[C@@H](O)[C@H]1O [ATP, adenosine triphosphate] as the compound, how does the Diffusion coefficient read?
**A.** 1.142±0.018 ×10^−6 cm^2/s
